Experimental data taken from patent US8822509B2, “Pain-relieving compositions and uses therefor” (priority 2006, dated 2014).
Where two headings read alike, the source gives them in different places. Marks after values point to notes of the source that are not given here.

Tests used:
[1] = target: T1, μ-opioid receptors (MOP receptors) (Mus musculus, UniProt P42866); assay type: cell-based
T1 construct: expressed in transfected cells; host or cells: HEK293

[2] = target: T1, μ-opioid receptors (MOP receptors); assay type: cell-based; remark: listed apart in the source
Protocol: Briefly, HEK-MOP cells were pre-incubated with 2% (2-hydroxypropyl)-β-cyclodextrin (βCD) for 1 h at 37° C. to deplete cholesterol from caveloae in the cell membrane. Cells were washed with DMEM and then utilized in the forskolin-stimulated cAMP assay as described above. […] Cells were washed with DMEM and then utilized in the forskolin-stimulated cAMP assay as described above.

[3] = In vitro NO release (Total NOx, modified Griess reagent assay); conditions: assay of Example 9; for 1 Hour Total NOx: NOx analysis at 1 hour; for 6 Hours Total NOx: NOx analysis at 6 hours
Protocol: Briefly, HEK-MOP cells were seeded at 1×10^5 cells/mL and grown in 10 cm plates to 90% confluence. Four hours prior to experimentation, cell medium was replaced with phenol red-free DMEM. […] Following removal of each supernatant sample, it was replaced with 500 μL of phenol red-free DMEM. Samples were immediately placed on ice until NOx concentrations were quantified.
Sample aliquots (100 μL) were added to 96-well plates in duplicates. Nitrate was first converted to nitrite to determine total NOx concentrations with the addition of 100 μL aliquots of vanadium (III) chloride in 1M HCl (800 mg/100 mL) per well, followed by 100 μL aliquots of modified Griess reagent which converted nitrite to a deep purple azo derivative for spectrophotometric quantification at 560 nm using an Envision Multilabel Plate Reader (PerkinElmer Life Sciences). […] Total NOx and nitrite concentration was determined through inverse prediction against the nitrite standard curve.

[4] = system: mechanical allodynia in rats hyporesponsive to morphine; assay: Relief of mechanical allodynia (PWT) in rats hyporesponsive to morphine; assay type: in vivo

T1 sequence (P42866 whole entry): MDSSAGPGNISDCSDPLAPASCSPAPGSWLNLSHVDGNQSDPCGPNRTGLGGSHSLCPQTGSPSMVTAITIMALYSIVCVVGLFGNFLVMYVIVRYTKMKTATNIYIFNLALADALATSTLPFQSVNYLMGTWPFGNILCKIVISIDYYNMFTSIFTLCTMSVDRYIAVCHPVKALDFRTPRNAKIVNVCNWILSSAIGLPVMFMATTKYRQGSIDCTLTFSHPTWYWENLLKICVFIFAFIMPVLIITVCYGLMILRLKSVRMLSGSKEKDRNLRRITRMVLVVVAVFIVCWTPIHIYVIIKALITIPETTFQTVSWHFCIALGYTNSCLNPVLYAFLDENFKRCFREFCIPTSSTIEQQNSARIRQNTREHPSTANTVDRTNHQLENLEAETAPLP

SMILES	% of forskolin stimulated cyclic AMP response ([1]; Conc 10^−10 M) [%]	% of forskolin stimulated cyclic AMP response ([1]; Conc 10^−12 M) [%]	% of forskolin stimulated cyclic AMP response ([2]; Conc 10^−3 M) [%]	% of forskolin stimulated cyclic AMP response ([2]; Conc 10^−4 M)	% of forskolin stimulated cyclic AMP response ([2]; Conc 10^−5 M)	% of forskolin stimulated cyclic AMP response ([2]; Conc 10^−6 M)	% of forskolin stimulated cyclic AMP response ([2]; Conc 10^−7 M) [%]	% of forskolin stimulated cyclic AMP response ([2]; Conc 10^−8 M)	% of forskolin stimulated cyclic AMP response ([2]; Conc 10^−9 M) [%]	% of forskolin stimulated cyclic AMP response ([2]; Conc 10^−11 M) [%]	% of forskolin stimulated cyclic AMP response ([2]; Conc 10^−13 M) [%]	% of forskolin stimulated cyclic AMP response ([2]; Conc 10^−14 M)	% of forskolin stimulated cyclic AMP response ([2]; Conc 10^−15 M)	% of forskolin stimulated cyclic AMP response ([2]; Conc 10^−16 M) [%]	% of forskolin stimulated cyclic AMP response ([2]; Conc 10^−17 M)	% of forskolin stimulated cyclic AMP response ([2]; Conc 10^−18 M)	1 Hour Total NOx [3] [µM]	6 Hours Total NOx [3] [µM]	other results
O=C(c1no[n+]([O-])c1-c1ccccc1)C(F)(F)F [Compound 22]	66.1	62.4	0.3	18.2%	77.9%	87.5%	68.4	82.1%	65.2	59.2	70.5	104.6%	89.0%	73.2	59.4^b %	47.0%	1.63	2.52	
Cc1c(C(=O)O)no[n+]1[O-] [Compound 6]	61.5	91.1	8.1	115.0%	138.7%	109.7%	110.5	111.2%	88.2	88.0	128.0	98.2%	79.0^a %	149.0	83.9%	60.4%	0.31	0.53	
CCc1c(C(=O)O)no[n+]1[O-] [Compound 8]	79.4	128.3	6.8	68.2%	90.0%	104.7%	102.9	114.3%	107.0	88.3	112.7	94.8%	97.6%	140.5	115.0%	72.8%			
O=Cc1c(-c2ccccc2)no[n+]1[O-] [Compound 14]	69.5	92.8	8.5	40.7^a %	51.0^a %	110.6^a %	121.5	113.2^a %	107.4	62.7	94.2	103.4^a %	103.8%	129.8	120.5%	95.1%			
O=C(O)CCCCO[N+](=O)[O-] [Compound 33, 5-nitratopentanoic acid]																	13.14	67.69	inhibition of forskolin-stimulated cyclic AMP formation ([1]; μm to mm range (so in the source)): dose dependent inhibition; relief of mechanical allodynia ([4]; Compound 33 80 nmol/kg s.c. bolus): insignificant relief; relief of mechanical allodynia ([4]; Compound 33 120, 800 and 1200 nmol/kg s.c. bolus): significant relief of mechanical allodynia; duration of anti-allodynia ([4]; Compound 33 s.c. bolus): 2 to 3 h; time of peak anti-allodynia post-dosing ([4]; Compound 33 s.c. bolus): 0.75 to 1 h
O=C1CCc2c1no[n+]2[O-] [Compound 16]	101.3	59.3	18.9	44.3%	105.2%	83.5%	119.9	62.2%	125.4	67.1	98.8	106.3%	97.7%	108.3	100.4%	62.4^a %	1.08	1.19	
